Measured values published in patent publication US9345677B2, “Compositions, methods and kits relating to HER-2 cleavage” (Incyte Corporation, priority 2003, dated 2016).

Tests used:
[1] = tested on: BT-474-SC1 tumor xenografts; assay: Tumor volume in BT-474-SC1 xenograft model; assay type: in vivo, mice
Experimental: For the BT-474-SC1 tumor model (see Results below), slow-release estrogen pellets (Innovative Research of America) were inserted subcutaneously (s.c.) into the flank of each mouse 24 hours prior to tumor cell inoculation. Balb/C nude and SCID-bg mice were obtained from Charles River Laboratories. Cells were harvested from their tissue culture plates, counted, centrifuged, and resuspended in serum free growth media and BD Matrigel™ at a 1:1 ratio immediately prior to implantation. In either one or two locations, 1−2×10^7 viable BT-474-SC1 cells were injected s.c. into the upper flank of each mouse. For all models, tumors were measured on a weekly basis and their volumes calculated using the formula [volume=(length×width^2)÷2]. Once the mean tumor volume of the required number of mice reached the desired size (usually >150 mm^3), they were randomized into treatment groups usually containing between 6 and 12 mice. Animals were then treated with compound or vehicle (10% DMAC, 30% propylene glycol) by mini-osmotic pump (Alzet, Cupertino, Calif.) implanted i.p. or s.c. for 7 to 28 days to achieve the desired compound exposure—controlled by altering the pump flow rate and/or the concentration of compound inside the pumps. Tumor size and body weights (a measure of animal health) were monitored weekly. Blood samples were also drawn (retro-orbital) while the osmotic pumps were functional and plasma was separated by centrifugation and stored at −80° C. for later pharmacokinetic and/or ELISA analysis, to determine the levels of circulating Her-2 ECD (described above). Note that in experiments designed to evaluate the effects of compound treatment on levels circulating Her-2 ECD, blood samples were drawn on the day osmostic pumps were implanted (day 0) and then again six days later (day 6).

[2] = tested on: AKT and ERK phosphorylation in MCF7 cells; assay: Western blot of phospho-ERK and phospho-AKT; assay type: cell-based, human; settings: Her-2 non-overexpressing MCF7 cells
[3] = tested on: Her-2 cleavage in a primary breast tumor cell line that over expresses Her-2; assay: Shed Her-2 ECD in primary breast tumor cell culture; assay type: cell-based, human; settings: primary breast tumor cell line over expressing Her-2
Experimental: Tumor specimens were obtained by Oncotech (Tustin, Calif.) according to their IRB approved protocol using standard procedures known in the art. Cell cultures were maintained in tissue culture flasks. Cells intended for experimental treatment were harvested in log phase with EDTA and were plated at a density of 1×10^5 cells/well in 24-well polystyrene plates in 0.5 ml RPMI with 10% FCS. Experiments to determine the effects of MPIs on shed Her-2 receptor were performed as described below for BT-474 cells.
(§1) BT474 cells were seeded in 100 μL of RPMI medium containing 10% FCS+10 μg/ml insulin in 96 well plates at 2×10^4 cells/well. The cells were incubated overnight at 37° C. The following morning, the media was removed and 100 μL of fresh media with or without compound was added back. The cells were incubated for about 72 hours at 37° C. After about 72 hours, the supernatants were removed. The samples were diluted 1:10 and analyzed using a commercially available Her-2 ELISA kit per manufacturer's instructions (Oncogene Research, catalog #QIA 10).

[4] = tested on: Her-2 sheddase; assay: Her-2 ECD ELISA of BT474 culture supernatants (Her-2 sheddase inhibition); assay type: cell-based, human
Experimental: as §1
These inhibitors were added, at varying concentrations, to cultures of BT474 cells, a Her-2 overexpressing breast cancer cell line known to enzymatically process cell surface Her-2 (p185) and release the extracellular domain (ECD) into the culture supernatant, i.e., shedding of ECD. After 72 hours, cell culture supernatants were harvested and assayed for Her-2 ECD content using an ELISA assay.

[5] = tested on: Her-2 cleavage in SK-BR3 cells; assay: Western blot of Her-2 ECD (105 kDa) in culture supernatants; assay type: cell-based, human; settings: varying concentrations
[6] = tested on: AKT and ERK phosphorylation in BT474 cells; assay: Western blot of phospho-ERK and phospho-AKT; assay type: cell-based, human
Experimental: In experiments to determine the effects of MPI treatment on cell signaling, BT474 cells were plated at 1×10^5 cells/mL in 2 mL of media (RPMI+10% FCS+10 μg/mL insulin) in 12-well plates. […] After 5 days, the cells were harvested, lysed in 200 μL ice-cold lysis buffer containing 10 mM Tris, pH 7.2, 150 mM NaCl, 1% Triton X-100, 1% deoxycholic acid, 0.1% SDS, 50 μg/mL leupeptin, 50 μg/mL aprotinin, 1 mM sodium vanadate, 50 mM sodium fluoride, 1 mM PMSF. After 10 minutes on ice, the samples were microfuged at 13,000 rpm for 10 minutes at 4° C. and the supernatants collected. For analysis, 15 μL of 2× Laemmli sample buffer (BioRad, cat#161-0737) was added to 15 μL of extract, samples boiled for 5 minutes and loaded onto 12-well 12% Tris-Glycine gels (Novex, cat# EC60052). Gels were run in 1× Tris-Glycine-SDS buffer (Gibco BRL) using Novex minigel apparatus for approximately 1.5 hours. Following electrophoresis, proteins were transferred onto PVDF membrane (NEN, cat#NEF1000) in 1× Tris-Glycine buffer (Biorad, cat#161-0734) containing 20% MeOH for 2-3 hours using BioRad miniblot transfer system. After transfer, membranes were blocked in PBS+5% milk+0.1% Tween-20 for 1 h at RT. […]
Phosphorylation of AKT and the MAP kinase ERK were monitored by western blot analysis using phospho-specific antibodies.

[7] = tested on: Her-2 cleavage in BT-474 cells; assay: Western blot of Her-2 ECD (105 kDa) in culture supernatants; assay type: cell-based, human
Experimental: BT474 cells were seeded in 1 mL of RPMI medium containing 10% FCS+10 μg/ml insulin in 12 well plates at 1×10^5 cells/well. The cells were incubated overnight at 37° C. The following morning, the media was removed and 1 mL of fresh serum-free RPMI media+/− compound was added back. The cells were incubated for 5 days at 37° C. After 5 days, the supernatants were removed. 15 μL of supernatant was added to 15 μL of sample buffer (Novex, catalog #LC2676) and the samples were loaded onto a 4-12% Tris-Glycine gradient gel (Novex, EC6035). The samples were separated for 2 hours at 125 volts. The gels were then transferred onto PVDF membrane (NEN, catalog #NEF-100) at 30 volts overnight in the cold. The following morning, the blots were blocked in 5% milk/PBS/0.05% Tween-20 for 1 hour at room temperature. Her-2 antibody (NeoMarkers, catalog #MS-1350-P1) was diluted 1:200 in 5% milk/PBS/0.05% Tween-20 and incubated with the blots for 2 hours at room temperature. The blots were washed 5 times (10 minutes each wash) in PBS/0.05% Tween-20. An HRP-conjugated goat anti-mouse IgG antibody was diluted 1:2000 and added to the blots for 1 hour at room temperature, The blots were washed 5 times (10 minutes each wash) in PBS/0.05% Tween-20. The blots were then incubated for 5 minutes with SuperSignal West Pico Chemiluminescent substrate (Pierce, catalog #34080) and exposed to film.

[8] = tested on: circulating Her-2 ECD; assay: Plasma Her-2 ECD ELISA in BT-474-SC1 xenograft mice; assay type: in vivo
Experimental: For the BT-474-SC1 tumor model (see Results below), slow-release estrogen pellets (Innovative Research of America) were inserted subcutaneously (s.c.) into the flank of each mouse 24 hours prior to tumor cell inoculation. Balb/C nude and SCID-bg mice were obtained from Charles River Laboratories. Cells were harvested from their tissue culture plates, counted, centrifuged, and resuspended in serum free growth media and BD Matrigel™ at a 1:1 ratio immediately prior to implantation. In either one or two locations, 1−2×10^7 viable BT-474-SC1 cells were injected s.c. into the upper flank of each mouse. For all models, tumors were measured on a weekly basis and their volumes calculated using the formula [volume=(length×width^2)÷2]. Once the mean tumor volume of the required number of mice reached the desired size (usually >150 mm^3), they were randomized into treatment groups usually containing between 6 and 12 mice. […] Tumor size and body weights (a measure of animal health) were monitored weekly. […]
To measure levels of circulating Her-2 ECD in mice, plasmas were isolated from the blood samples described above and analyzed shortly after harvesting or stored frozen at −80° C. until analysis. To assess Her-2 ECD levels, plasma samples were diluted 1:5 and analyzed using a commercially available Her-2 ELISA kit per manufacturer's instructions (Oncogene Research, catalog #QIA10). […]

SMILES: O=C(NO)[C@H]1CC2(CC2)CN[C@@H]1C(=O)N1CC=C(c2ccccc2)CC1 [Compound 3, (6S,7S)-6-{[4-phenyl-3,6-dihydropyridin-1(2H)-yl]carbonyl}-N-hydroxy-5-azaspiro[2.5]octane-7-carboxamide]
- tumor growth over a 28-day period ([1]; BT474-SC1 model, vehicle tumors tripled in size): complete suppression of tumor growth

SMILES: COc1ccc(S(=O)(=O)N2Cc3ccccc3C[C@@H]2C(=O)NO)cc1 [Compound 4, (3R)-N-hydroxy-2-((4-methoxyphenyl)sulfonyl)-1,2,3,4-tetrahydroisoquinoline-3-carboxamide]
- AKT and MAP kinase pathways [2]: not impacted
- inhibition of Her-2 cleavage [3]: inhibition of Her-2 cleavage
- inhibition of Her-2 cleavage (ECD processing), ELISA ([4]; BT-474 cells, 72 hours): inhibition of Her-2 cleavage
- inhibition of Her-2 cleavage, Western blot [5]: inhibition of Her-2 cleavage
- phosphorylation of both AKT and ERK ([6]; sheddase inhibitor in combination with 0.2 μg/ml Herceptin): detectable reduction in phosphorylation
- AKT or ERK phosphorylation, single agent ([6]; sheddase inhibitor less than 5 μM alone or 0.2 μg/ml Herceptin alone): did not demonstrate a detectable effect
- inhibition of Her-2 cleavage, Western blot ([7]; MPI alone, varying concentrations): inhibition of Her-2 cleavage
- blocking Her-2 cleavage, MPI in combination with Herceptin ([7]; combination with Herceptin): additive effect

SMILES: CC1(C)SCCN(S(=O)(=O)c2ccc(Oc3ccncc3)cc2)[C@H]1C(=O)NO [Compound 7, Prinomastat, reference compound]
- IC50 [4]: 20 to 100 nM

SMILES: COC(=O)N1CC2(CC2)C[C@H](C(=O)NO)[C@H]1C(=O)N1CCN(c2ccccc2)CC1 [Compound 2, methyl (6S,7S)-7-[(hydroxyamino)carbonyl]-6-[(4-phenylpiperazin-1-yl)carbonyl]-5-azaspiro[2.5]octane-5-carboxylate]
- level of circulating ECD on day 6 compared to vehicle ([8]; BT-474-SC1 tumor bearing mice, osmotic pump, p<0.0001): significantly lower
- magnitude of change in ECD ([8]; day 6): 56%
- tumor size on day 6 compared to vehicle ([1]; BT474-SC1 xenograft, p=0.0001): significantly smaller
- magnitude of change in tumor volume ([1]; day 6): 27%
- partial remission (greater than a 25% reduction in tumor volume) ([1]; day 6): multiple tumors demonstrated a partial remission
